Where a SMILES comes first, the peptide text is derived from it. Bridges are numbered along the chain shown (N, C = ends). [ ]: non-standard residue; d: D form. Dap = NC[C@H](N)C(=O)O
Key:
[1] = biological target: T1, human VIPR1 (Homo sapiens, UniProt P32241); test: Calcium influx assay, antagonist activity against VIP-VIPR1 signaling; assay type: cell-based; conditions: ligand VIP (25 nM) at EC80; CHO-K1 cells; n = 4 wells, ± S.E.M; read-out: Ca influx assay [IC50 (nM)] VIPR1
T1 construct: host or cells: CHO-K1
T1 sequence (P32241 31-457): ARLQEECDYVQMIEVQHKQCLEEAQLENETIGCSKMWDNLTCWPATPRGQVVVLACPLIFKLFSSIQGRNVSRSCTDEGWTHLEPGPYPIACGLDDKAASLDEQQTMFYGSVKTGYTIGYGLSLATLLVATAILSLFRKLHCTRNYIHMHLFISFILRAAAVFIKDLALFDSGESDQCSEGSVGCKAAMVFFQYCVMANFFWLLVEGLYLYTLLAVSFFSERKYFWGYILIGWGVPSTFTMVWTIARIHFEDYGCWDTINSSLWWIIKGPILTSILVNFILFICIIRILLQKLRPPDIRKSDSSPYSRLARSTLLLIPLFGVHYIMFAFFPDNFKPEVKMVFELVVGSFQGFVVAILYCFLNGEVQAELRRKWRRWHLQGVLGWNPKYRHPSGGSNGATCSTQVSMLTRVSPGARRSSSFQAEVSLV
Protocol: (§1) Evaluation of antagonist activities of peptides against VIP-VIPR1, VIP-VIPR2, and PACAP-PAC1 signaling pathways and agonistic activity of KS-133 at VIPR2 was carried out by Eurofins DiscoverX (Fremont, CA, United States). Intracellular calcium mobilization was monitored using a calcium-sensitive dye loaded in CHO-K1 cells expressing human VIPR1 (ITEM 86-0030P-2243AN), VIPR2 (ITEM 86-0030P-2244AN), and PAC1 (ITEM 86-0030P-2066AN). The cells were preincubated with antagonistic peptides for 30 min at room temperature in the dark. After addition of the ligand at EC80, calcium mobilization was immediately monitored by FLIPR Tetra for 2 min. Cyclic AMP production in CHO-K1 cells expressing human VIPR2 was evaluated using HitHunter® cAMP assays (antagonist mode: ITEM 86-0007P-2362AN; agonist mode: ITEM 86-0007P-2362AG). The cells were preincubated with antagonistic peptides for 30 min at room temperature. After addition of the ligand at EC80, cells were further incubated for 30 min at room temperature. Cells were lysed and the cAMP content of the cell lysate was determined by the β-galactosidase-based enzyme fragment complementation assay ([Eglen, 2002]). IC50 values were estimated by the following equation: IC50 = 10^[Log(A/B) × (50–D)/(C–D) + Log(B)], where A is the concentration at >50% inhibition, B is the concentration at <50% inhibition, C is the inhibition rate at concertation A, and D is the inhibition rate at concertation B.
(§2) First, the antagonistic activities of parental VIpep-3, KS-132, KS-133 (monocyclic) (no bridging between Lys^7 and Asp^11), and KS-133 against human VIPR1, VIPR2, and PAC1 were evaluated by a calcium influx assay. After antagonistic peptide treatment for 30 min, ligand at a concentration of EC80 was added to the cells and then calcium signaling was measured.
(§3) FIGURE 3 Antagonistic/agonistic activities of peptides in the calcium influx and cAMP assays. For evaluation of the antagonistic activity, the cells were preincubated with antagonistic peptides for 30 min. In the calcium influx assay, after addition of ligand at EC80, calcium mobilization was monitored immediately (see details in the Methods section) (n = 4 wells for each treatment). In the cAMP assay, after a 30 min incubation with the ligand at EC80, cAMP production in cells was measured (see details in the Methods section) (n = 4 wells for each treatment).

[2] = biological target: T2, human VIPR2 (Homo sapiens, UniProt P41587); test: Calcium influx assay, antagonist activity against VIP-VIPR2 signaling; assay type: cell-based; conditions: ligand VIP (150 nM) at EC80; CHO-K1 cells; n = 4 wells, ± S.E.M; read-out: Ca influx assay [IC50 (nM)] VIPR2
T2 construct: host or cells: CHO-K1
T2 sequence (P41587 24-438): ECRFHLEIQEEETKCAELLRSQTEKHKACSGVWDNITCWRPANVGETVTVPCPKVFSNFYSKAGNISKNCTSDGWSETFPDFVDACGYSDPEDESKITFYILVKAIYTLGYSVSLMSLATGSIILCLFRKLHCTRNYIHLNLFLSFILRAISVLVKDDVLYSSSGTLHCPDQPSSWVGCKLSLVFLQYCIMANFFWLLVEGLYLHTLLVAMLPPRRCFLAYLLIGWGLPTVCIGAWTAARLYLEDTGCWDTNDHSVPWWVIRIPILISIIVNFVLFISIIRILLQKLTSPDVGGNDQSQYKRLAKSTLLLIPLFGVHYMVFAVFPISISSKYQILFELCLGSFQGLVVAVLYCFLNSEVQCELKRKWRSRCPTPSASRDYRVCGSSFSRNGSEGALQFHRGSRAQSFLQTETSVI
Protocol: as §1, with “The cells were preincubated with antagonistic peptides for 30 min at room temperature. After addition of the ligand at EC80, cells were further incubated for 30 min at room temperature.” left out, “IC50 values were estimated by the following equation: IC50 = 10^[Log(A/B) × (50–D)/(C–D) + Log(B)], where A is the concentration at >50% inhibition, B is the concentration at <50% inhibition, C is the inhibition rate at concertation A, and D is the inhibition rate at concertation B.” left out
as §2, with “measured. […]” for “measured.”

[3] = biological target: T3, human PAC1 (Homo sapiens, UniProt P41586); test: Calcium influx assay, antagonist activity against PACAP-PAC1 signaling; assay type: cell-based; conditions: ligand PACAP (35 nM) at EC80; CHO-K1 cells; n = 4 wells, ± S.E.M; read-out: Ca influx assay [IC50 (nM)] PAC1
T3 construct: host or cells: CHO-K1
T3 sequence (P41586 21-468): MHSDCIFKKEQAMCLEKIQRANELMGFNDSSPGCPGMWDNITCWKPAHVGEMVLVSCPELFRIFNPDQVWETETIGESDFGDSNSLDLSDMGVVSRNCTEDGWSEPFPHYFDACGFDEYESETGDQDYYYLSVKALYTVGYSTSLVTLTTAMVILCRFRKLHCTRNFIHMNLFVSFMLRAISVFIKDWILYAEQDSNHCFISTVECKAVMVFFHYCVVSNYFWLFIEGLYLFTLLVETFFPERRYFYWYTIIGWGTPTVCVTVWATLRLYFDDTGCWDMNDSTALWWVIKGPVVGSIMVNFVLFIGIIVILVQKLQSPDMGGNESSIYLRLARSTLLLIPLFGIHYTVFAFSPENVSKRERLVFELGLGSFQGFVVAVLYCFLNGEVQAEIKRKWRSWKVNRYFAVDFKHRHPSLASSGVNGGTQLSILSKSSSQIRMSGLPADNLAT
Protocol: as §1, §2, §3

[4] = Peptide stability in rat plasma (RP-HPLC); assay type: in vitro ADME; conditions: for Stability in rat plasma / RP-HPLC peak area, incubation time 24 h / remaining at 24 h, 0.476 mM: 37°C, 24 h; for RP-HPLC peak area, Input (NT): no plasma treatment; for RP-HPLC peak area, incubation time 24 h / remaining at 24 h, 0.476 mM / RP-HPLC peak area, immediately after mixing / Residual rate, immediately after mixing: rat plasma; for remaining at 24 h, 0.476 mM: read-out: Residual rate, incubation time 24 h
Protocol: Each peptide (10 mM, 1 μl) was incubated with rat plasma (20 μl) prepared in-house. Immediately after mixing with plasma and after 24 h of incubation at 37°C, 80% acetonitrile (200 μl) was added to extract VIpep-3 and acetonitrile (200 μl) was added to extract KS-132, KS-133(monocyclic), and KS-133. The mixture was stored for 10 min on ice and then centrifuged at 20,000 × g for 10 min at 4°C. The supernatant was recovered and directly applied to RP-HPLC to determine the remaining amount of unmodified peptides in the sample.
The stability of peptides was evaluated in rat plasma. A peptide was incubated in rat plasma at 37°C for 0 and 24 h and the remaining amount of peptide was determined by RP-HPLC. By comparison with the peak area of the peptide, the remaining amount of the peptide after plasma incubation was estimated. […] KS-133(monocyclic) may form a pseudo bicyclic structure by ionic bond interaction between side chains of Lys and Asp.

[5] = system: VIPR2; parameters: method as in Sakamoto et al. (2018); conditions: versus VIPR1 and PAC1; ref Sakamoto et al. (2018); cited from earlier work

| SMILES | IC50 [1] [nM] | IC50 [2] [nM] | IC50 [3] [nM] | Stability in rat plasma [4] | RP-HPLC peak area, Input (NT) [4] | RP-HPLC peak area, incubation time 24 h [4] | remaining at 24 h, 0.476 mM [4] [%] | RP-HPLC peak area, immediately after mixing [4] | Residual rate, immediately after mixing [4] [%] | Receptor selectivity for VIPR2 compared with the two other receptor subtypes [5] |
| --- | --- | --- | --- | --- | --- | --- | --- | --- | --- | --- |
| CC[C@H](C)[C@H](NC(=O)[C@H](CC(C)C)NC(=O)[C@H](CN)NC(=O)[C@@H]1CSSC[C@H](NC(C)=O)C(=O)N2CCC[C@H]2C(=O)N2CCC[C@H]2C(=O)N[C@@H](Cc2ccc(O)cc2)C(=O)N[C@@H](CC(C)C)C(=O)N2CCC[C@H]2C(=O)N[C@@H](CN)C(=O)N[C@@H](Cc2ccc(O)cc2)C(=O)N[C@@H](CC(C)C)C(=O)N1)C(N)=O [KS-132, Ac-c(Cys-Pro-Pro-Tyr-Leu-Pro-Dap-Tyr-Leu-Cys)-Dap-Leu-Ile-NH2] (Ac-CPPYLP[Dap]YLC[Dap]LI-NH2; disulfide 1-10) | > 5000 | 33.4 ± 2.8 | > 5000 | significantly degraded within 24 h | 1460241 | 696652 | 57.8 | 1206247 | 100 |  |
| CC(=O)N[C@H]1CSSC[C@@H](C(=O)N[C@H](C(=O)N[C@@H](CC(C)C)C(=O)N[C@@H](CC(C)C)C(=O)N[C@@H](CC(C)C)C(=O)N[C@@H](CCCNC(=N)N)C(=O)N[C@@H](CO)C(=O)O)[C@@H](C)O)NC(=O)[C@H](CC(C)C)NC(=O)[C@H](CCCNC(=N)N)NC(=O)[C@H](CCCNC(=N)N)NC(=O)[C@@H]2CCCN2C(=O)[C@H](CC(C)C)NC(=O)[C@H](Cc2ccc(O)cc2)NC(=O)[C@@H]2CCCN2C(=O)[C@@H]2CCCN2C1=O [VIpep-3, Ac-c(CPPYLPRRLC)TLLLRS-OH, reference compound] (Ac-CPPYLPRRLCTLLLRS-OH; disulfide 1-10) | > 5000 |  | > 5000 | significantly degraded within 24 h | 1299273 | 95354 | 10.6 | 900813 | 100 | more than 50 fold |
| CC[C@H](C)[C@H](NC(=O)[C@H](CC(C)C)NC(=O)[C@H](CC(=O)O)NC(=O)[C@@H]1CSSC[C@H](NC(C)=O)C(=O)N2CCC[C@H]2C(=O)N2CCC[C@H]2C(=O)N[C@@H](Cc2ccc(O)cc2)C(=O)N[C@@H](CC(C)C)C(=O)N2CCC[C@H]2C(=O)N[C@@H](CCCCN)C(=O)N[C@@H](Cc2ccc(O)cc2)C(=O)N[C@@H](CC(C)C)C(=O)N1)C(N)=O [KS-133(monocyclic)] (Ac-CPPYLPKYLCDLI-NH2; disulfide 1-10) | > 5000 | 56 ± 3.9 | > 5000 | also highly stable | 768775 | 724176 | 97.3 | 744262 | 100 |  |

— publication PMC8607231, “Generation of KS-133 as a Novel Bicyclic Peptide with a Potent and Selective VIPR2 Antagonist Activity that Counteracts Cognitive Decline in a Mouse Model of Psychiatric Disorders” (Frontiers in Pharmacology, 2021)
